Laboratory results reported in patent EP2527323A1, “Urea carbonyl disulfide derivatives and their therapeutic uses” (NOSCIRA, S.A., priority 2011, dated 2012).

What was measured:
human recombinant GSK3β = target: T1, human recombinant GSK3β (Homo sapiens, UniProt P49841); test: GSK-3β assay (Z'-LYTE FRET enzymatic activity); assay type: biochemical; settings: 2 nM enzyme (N-terminal 6His-tagged, H350L mutation), 12.5 µM ATP, 2 µM Ser/Thr 9 peptide, 60 min at room temperature, 1% DMSO; read-out: GSK3β inhibition average EC50
T1 construct: 6His (N); purchased Millipore (Billerica, MA, USA)
T1 sequence (P49841 whole entry): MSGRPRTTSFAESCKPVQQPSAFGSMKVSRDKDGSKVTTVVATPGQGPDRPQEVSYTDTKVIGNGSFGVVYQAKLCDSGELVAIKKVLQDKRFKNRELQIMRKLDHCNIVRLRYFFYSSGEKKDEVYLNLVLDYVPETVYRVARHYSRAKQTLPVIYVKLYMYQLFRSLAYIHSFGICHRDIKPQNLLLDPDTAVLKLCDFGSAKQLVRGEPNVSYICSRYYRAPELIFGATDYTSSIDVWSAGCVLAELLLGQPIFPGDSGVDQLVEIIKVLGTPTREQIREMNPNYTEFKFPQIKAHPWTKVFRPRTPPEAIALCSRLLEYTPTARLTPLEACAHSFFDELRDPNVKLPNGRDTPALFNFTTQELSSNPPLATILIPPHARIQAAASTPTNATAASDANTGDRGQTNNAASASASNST
Experimental: The enzymatic activity of GSK3β was determined with a commercial system based on the Z'-LYTE® technology, available from Invitrogen Life Technologies (Carlsbad, CA, USA), using human recombinant GSK3β (N-terminal 6His-tagged recombinant enzyme with an H350L mutation) from Millipore (Billerica, MA, USA) as the enzyme source. This technology utilizes the fluorescence resonance energy transfer ("FRET") process between fluorescein and coumarin. The assay principle is based on the differential sensitivity of phosphorylated and non-phosphorylated peptide to proteolytic cleavage, which precludes the energy transfer process between the two fluorophores attached to both sides of the cleavage site. […] The latter is a synthetic peptide, provided by Invitrogen under the commercial name "Ser/Thr 9 peptide", and it is based upon the sequence of a GSK3β substrate protein (glycogen synthase I) containing Ser-641. The peptide is labeled at both ends with fluorescein and coumarin. The assay is carried out in the presence of different concentrations of the tested compound, at a final 1% (v/v) DMSO concentration. After a 60 min incubation at room temperature, 5 µl of a commercial protease solution (sold by the same vendor in the assay kit) is added and a subsequent 1h incubation at room temperature is performed, before adding 5 µl of a suitable "stop solution", also provided by the vendor in the kit. After that, fluorescence intensity is recorded, monitoring emission at both 445 and 520 nm, upon excitation at 400 nm. An emission ratio is finally calculated, using the quotient among the emission at 445 nm divided by that at 520 nm.
The emission ratio of each tested sample is normalized to that of the control wells, so that for every compound concentration the percentage of inhibition is calculated by using the following equation: % Inhibition = 100⋅(E-S)/(E-B) [formula] wherein "S" is the emission ratio of the sample being considered, "E" is the average emission ratio of wells, including enzyme in the absence of inhibitors, and "B" is the average emission ratio of wells without enzyme. The inhibition values obtained at every compound concentration are finally used to calculate the EC50 of the tested compound, this parameter being the concentration of the compound which causes 50% of inhibition. For that purpose, the data were fitted to a classical 4-parameters isotherm equation using the nonlinear regression function of GraphPad™ Prism 5.0 (GraphPad Software Inc.). Such equation is described below: % Inhibition = L + (H-L)/(1 + (((EC50)/(C)))^n) [formula] wherein "L" is the lower asymptote of the theoretical sigmoidal curve, "H" is the higher asymptote, "C" is the concentration of compound and "n" is the Hill coefficient.

[1] = test system: Ser-396 residue of Tau protein in human neuroblastoma SH-SY5Y cells; test: Cellular assay: phosphorylation at Ser-396 of Tau protein (ELISA); assay type: cell-based; settings: 18 h incubation at 37°C, 1% DMSO, normalized to untreated cells, read-out: pS*er396-Tau average EC50
Experimental: The effect of the compound in cells is determined by monitoring the level of phosphorylation at the Ser-396 residue of Tau protein in human neuroblastoma SH-SY5Y cells. Cells are grown in 96-well plates: 30,000 cells per well in a volume of 100 µl of 1:1 MEM:Ham's F12 medium including 10% (v/v) fetal bovine serum, 100 U/ml penicillin, 100 µg/ml streptomycin and 1% (v/v) 100-fold concentrated commercial stock of non-essential aminoacids (Gibco, Carlsbad, CA, USA), and incubated at 37°C during 24 h. Then, the corresponding amount of test compound is added to the wells to reach the desired concentration in 1% (v/v) DMSO. The system is incubated at 37°C during 18 h and afterwards cells are harvested, washed with phosphate buffer saline and incubated during 30 min on ice with 120 µl per well of "lysis buffer" (10 mM Tris-HCl pH 7.4, 100 mM NaCl, 1 mM EDTA, 2 mM sodium orthovanadate, 1% (v/v) Triton X-100, 10% (v/v) glycerol, 0.1% (w/v) sodium dodecyl sulfate, 0.5 % (w/v) sodium deoxycholate, 4% (v/v) 25-fold concentrated commercial stock of protease inhibitors (Roche, Basel, Switzerland) and 1 mM phenylmethylsulfonyl fluoride). 60 µl of this mixture is then placed in an empty 96-well plate and the levels of Ser-396 phosphorylation are determined using a commercial ELISA kit (Biosource, Carlsbad, CA, USA), following manufacturer's instructions. The levels of phosphorylation are expressed as percentage values, after normalizing them to those in untreated cells and those values are used to calculate EC50s, as described above for GSK-3.

For `C=CCSSC(=O)N(Cc1ccccc1)C(=O)Nc1cccc2ccccc12` [Compound 1, 1-Benzyl-1-hex-2,3-dithia-5-enoyl-3-naphthalen-1-yl-urea], the EC50 (human recombinant GSK3β) was 708 nM.

For `CCCCSSC(=O)N(Cc1ccccc1)C(=O)Nc1cccc2ccccc12` [Compound 2, 1-Benzyl-1-heptan-2,3-dithia-1-oyl-3-naphthalen-1-yl-urea], the EC50 (human recombinant GSK3β) was 66 nM.

Compound `CC(C)C(C)SSC(=O)N(Cc1ccccc1)C(=O)Nc1cccc2ccccc12` (centres unmarked) [Compound 3, 1-Benzyl-1-(4,5 dimethy-hexan-2,3-dithia-1-oyl)-3-naphthalen-1-yl-urea] has an EC50 (human recombinant GSK3β) of 161 nM.

In the case of `O=C(Nc1cccc2ccccc12)N(Cc1ccccc1)C(=O)SSCCc1ccccc1` [Compound 4, 1-Benzyl-1-(5-phenyl-pentan-2,3-dithia-1-oyl)-3-naphthalen-1-yl-urea], the EC50 [1] is reported as 6610 nM and the EC50 (human recombinant GSK3β) is reported as 58 nM.

`O=C(Nc1cccc2ccccc12)N(Cc1ccccc1)C(=O)SSC1CCCC1` [Compound 5, 1-Benzyl-1-(3-cyclopentyl-propion-2,3-dithia-1-oyl)-3-naphthalen-1-yl-urea] gave an EC50 (human recombinant GSK3β) of 125 nM.

`O=C(Nc1cccc2ccccc12)N(Cc1ccccc1)C(=O)SSCc1ccccc1` [Compound 6, 1-Benzyl-3-naphthalen-1-yl-1-(4-phenyl-butyr-2,3-dithia-1-oyl)-urea] showed an EC50 [1] of 6760 nM and an EC50 (human recombinant GSK3β) of 229 nM.

Work on `O=C(Nc1ccc2c(c1)OCO2)N(Cc1ccccc1)C(=O)SSC1CCCC1` [Compound 7, 3-Benzo[1,3]dioxol-5-yl-1-benzyl-1-(1-propion-2,3-dithia-3-cyclopentyl-1-yl)-urea] yielded an EC50 (human recombinant GSK3β) of 82 nM.

In the case of `CCOC(=O)CNC(=O)N(CC(=O)OCC)C(=O)SSCCc1ccccc1` [Compound 8, [3-Ethoxycarbonylmethyl-3-(pentan-2,3-dithia-5-phenyl-1-yl)-ureido]-acetic acid ethyl ester], the EC50 (human recombinant GSK3β) is reported as 97 nM.

Work on `CC(C)C(C)SSC(=O)N(Cc1ccccc1)C(=O)Nc1ccc(Oc2ccccc2)cc1` (centres unmarked) [Compound 9, 1-Benzyl-1-(hexan-2,5-dithia-4,5-dimethyl-1-yl)-3-(4-phenoxy-phenyl)-urea] yielded an EC50 (human recombinant GSK3β) of 35 nM.

For `CCCCCSSC(=O)N(Cc1ccccc1)C(=O)NCc1ccccc1` [Compound 10, 1,3-Dibenzyl-1-(octan-2,3-dithia-1-oyl)-urea], the EC50 [1] was 7080 nM and the EC50 (human recombinant GSK3β) was 295 nM.

`COC(=O)C(CSSC(=O)N(Cc1ccccc1)C(=O)Nc1cccc2ccccc12)NC(C)=O` (centres unmarked) [Compound 11, 2-Acetylamino-6-(1-benzyl-3-naphthalen-1-yl-ureido)-4-5-dithia-6-oxo-hexanoic acid methyl ester] gave an EC50 (human recombinant GSK3β) of 104 nM.

`CCN(CC)C(=O)N(C(=O)SSCc1ccccc1)c1cc(F)cc(F)c1` [Compound 12] gave an EC50 (human recombinant GSK3β) of 8320 nM.

`CCSSC(=O)N(C(=O)N(C)C)c1cccc(C(F)(F)F)c1` [Compound 13] gave an EC50 (human recombinant GSK3β) of 339 nM.

`O=C(Nc1cccc2ccccc12)N(Cc1ccccc1)C(=O)SS` [Compound 15, Benzyl-(N-Naphthalen-1-yl-formamide)-carbamoyl sodium dithioperoxol] gave an EC50 (human recombinant GSK3β) of 1660 nM.
